The structures appear in SMILES notation. Where two headings read alike, the source gives them in different places.

The assay concerns Male Sprague-Dawley rats. The note with it: six-hour delay.

Take `Nc1c2c(nc3ccccc13)CCCC2` [Tacrine, tacrine]: the “retention (errors in retention session)” value (tacrine 3 mg/kg s.c. immediately after the sampling phase) is listed as “not” and the “retention (errors in retention session)” value (tacrine 10 mg/kg s.c. immediately after the sampling phase) was “significantly improved retention”.
